Laboratory results: ChEMBL document CHEMBL3885881, “DrugMatrix”

Species on record: Rattus norvegicus
Experiment: DrugMatrix - Regimen: Daily Repeat
Assay type: toxicity, organism-based, Sprague-Dawley
Parameters: regimen Daily Repeat, gender Male, age 6-8 weeks
Settings: in vivo, po, route oral GAVAGE, vehicle .5 % CMC; for ABSOLUTE BASOPHIL / ABSOLUTE EOSINOPHIL / ABSOLUTE LYMPHOCYTE / ABSOLUTE SEGMENTED NEUTROPHIL / BASOPHIL / EOSINOPHIL / ERYTHROCYTE COUNT / HEMATOCRIT / LYMPHOCYTE / MEAN CORPUSCULAR HEMOGLOBIN / MEAN CORPUSCULAR HEMOGLOBIN CONCENTRATION / MEAN CORPUSCULAR VOLUME / MONOCYTE / NEUTROPHIL / NUCLEATED RED BLOOD CELLS / PLATELET COUNT / LEUKOCYTE COUNT: tissue Blood; for ALANINE AMINOTRANSFERASE / ALBUMIN / ALKALINE PHOSPHATASE / ASPARTATE AMINOTRANSFERASE / BLOOD UREA NITROGEN / CARBON DIOXIDE / CHLORIDE / CHOLESTEROL / CREATINE PHOSPHOKINASE / CREATININE / GLUCOSE / LACTATE DEHYDROGENASE / PHOSPHORUS / POTASSIUM / SODIUM / TOTAL BILIRUBIN / TOTAL PROTEIN / URIC ACID: tissue Plasma
[1] = 0 mg/kg, 72 h, dose level Control, time 3 day
[2] = 0 mg/kg, 120 h, dose level Control, time 5 day
[3] = 3 mg/kg, 72 h, dose level Low, time 3 day
[4] = 3 mg/kg, 120 h, dose level Low, time 5 day

CCN(CC)CCOc1ccc(/C(=C(/Cl)c2ccccc2)c2ccccc2)cc1 [ENCLOMIPHENE]
ABSOLUTE BASOPHIL [1]: 0 CELLS/uL
ABSOLUTE EOSINOPHIL [1]: 222.83 CELLS/uL
ABSOLUTE LYMPHOCYTE [1]: 14453 CELLS/uL
ABSOLUTE SEGMENTED NEUTROPHIL [1]: 1490.83 CELLS/uL
BASOPHIL [1]: 0%
EOSINOPHIL [1]: 1.33%
ERYTHROCYTE COUNT [1]: 5.76 x10E6/uL
HEMATOCRIT [1]: 36.52%
LYMPHOCYTE [1]: 89.33%
MEAN CORPUSCULAR HEMOGLOBIN [1]: 23.37 pg
MEAN CORPUSCULAR HEMOGLOBIN CONCENTRATION [1]: 36.85 G/DL
MEAN CORPUSCULAR VOLUME [1]: 63.47 fL
MONOCYTE [1]: 0%
NEUTROPHIL [1]: 9.33%
NUCLEATED RED BLOOD CELLS [1]: 0 /100WBC
PLATELET COUNT [1]: 1239.5 x10E3/uL
ALANINE AMINOTRANSFERASE [1]: 43.83 u/L
ALBUMIN [1]: 4.27 G/DL
ALKALINE PHOSPHATASE [1]: 398.83 u/L
ASPARTATE AMINOTRANSFERASE [1]: 81.17 u/L
BLOOD UREA NITROGEN [1]: 17.67 mg/dL
CARBON DIOXIDE [1]: 27.5 mmol/L
CHLORIDE [1]: 99.17 MEQ/L
CHOLESTEROL [1]: 74 mg/dL
CREATINE PHOSPHOKINASE [1]: 331.5 u/L
CREATININE [1]: 0.2 mg/dL
GLUCOSE [1]: 171.33 mg/dL
LACTATE DEHYDROGENASE [1]: 241.67 u/L
PHOSPHORUS [1]: 12.25 mg/dL
POTASSIUM [1]: 6.33 MEQ/L
SODIUM [1]: 141.28 MEQ/L
TOTAL BILIRUBIN [1]: 0.15 mg/dL
TOTAL PROTEIN [1]: 5.98 G/DL
URIC ACID [1]: 1.63 mg/dL
ABSOLUTE BASOPHIL [2]: 0 CELLS/uL
ABSOLUTE EOSINOPHIL [2]: 148.67 CELLS/uL
ABSOLUTE LYMPHOCYTE [2]: 16020.5 CELLS/uL
ABSOLUTE SEGMENTED NEUTROPHIL [2]: 1468.33 CELLS/uL
BASOPHIL [2]: 0%
EOSINOPHIL [2]: 1%
ERYTHROCYTE COUNT [2]: 5.78 x10E6/uL
HEMATOCRIT [2]: 35.77%
LEUKOCYTE COUNT [2]: 17.67 x10E3/uL
LYMPHOCYTE [2]: 90.5%
MEAN CORPUSCULAR HEMOGLOBIN [2]: 23.22 pg
MEAN CORPUSCULAR HEMOGLOBIN CONCENTRATION [2]: 37.47 G/DL
MEAN CORPUSCULAR VOLUME [2]: 61.92 fL
MONOCYTE [2]: 0.17%
NEUTROPHIL [2]: 8.33%
NUCLEATED RED BLOOD CELLS [2]: 0.17 /100WBC
PLATELET COUNT [2]: 1255.5 x10E3/uL
ALANINE AMINOTRANSFERASE [2]: 46.5 u/L
ALBUMIN [2]: 4.38 G/DL
ALKALINE PHOSPHATASE [2]: 336 u/L
ASPARTATE AMINOTRANSFERASE [2]: 76.5 u/L
BLOOD UREA NITROGEN [2]: 20 mg/dL
CARBON DIOXIDE [2]: 27.5 mmol/L
CHLORIDE [2]: 101 MEQ/L
CHOLESTEROL [2]: 71.33 mg/dL
CREATINE PHOSPHOKINASE [2]: 231.83 u/L
CREATININE [2]: 0.37 mg/dL
GLUCOSE [2]: 168.83 mg/dL
LACTATE DEHYDROGENASE [2]: 174 u/L
PHOSPHORUS [2]: 11.48 mg/dL
POTASSIUM [2]: 6.82 MEQ/L
SODIUM [2]: 143.8 MEQ/L
TOTAL BILIRUBIN [2]: 0.2 mg/dL
TOTAL PROTEIN [2]: 5.98 G/DL
URIC ACID [2]: 1.83 mg/dL
ABSOLUTE BASOPHIL [3]: 0 CELLS/uL
ABSOLUTE EOSINOPHIL [3]: 54.33 CELLS/uL
ABSOLUTE LYMPHOCYTE [3]: 13020.67 CELLS/uL
ABSOLUTE SEGMENTED NEUTROPHIL [3]: 996.33 CELLS/uL
BASOPHIL [3]: 0%
EOSINOPHIL [3]: 0.33%
ERYTHROCYTE COUNT [3]: 5.87 x10E6/uL
HEMATOCRIT [3]: 35.93%
LEUKOCYTE COUNT [3]: 14.23 x10E3/uL
LYMPHOCYTE [3]: 91.67%
MEAN CORPUSCULAR HEMOGLOBIN [3]: 24.23 pg
MEAN CORPUSCULAR HEMOGLOBIN CONCENTRATION [3]: 39.57 G/DL
MEAN CORPUSCULAR VOLUME [3]: 61.2 fL
MONOCYTE [3]: 1%
NEUTROPHIL [3]: 7%
NUCLEATED RED BLOOD CELLS [3]: 0 /100WBC
PLATELET COUNT [3]: 1129 x10E3/uL
ALANINE AMINOTRANSFERASE [3]: 57.33 u/L
ALBUMIN [3]: 4.5 G/DL
ALKALINE PHOSPHATASE [3]: 614.33 u/L
ASPARTATE AMINOTRANSFERASE [3]: 88 u/L
BLOOD UREA NITROGEN [3]: 13.67 mg/dL
CARBON DIOXIDE [3]: 25.33 mmol/L
CHLORIDE [3]: 105.67 MEQ/L
CHOLESTEROL [3]: 37 mg/dL
CREATINE PHOSPHOKINASE [3]: 178 u/L
CREATININE [3]: 0.16 mg/dL
GLUCOSE [3]: 148 mg/dL
LACTATE DEHYDROGENASE [3]: 196.67 u/L
PHOSPHORUS [3]: 13.37 mg/dL
POTASSIUM [3]: 6.75 MEQ/L
SODIUM [3]: 151.6 MEQ/L
TOTAL BILIRUBIN [3]: 0.2 mg/dL
TOTAL PROTEIN [3]: 6.17 G/DL
URIC ACID [3]: 1.43 mg/dL
ABSOLUTE BASOPHIL [4]: 0 CELLS/uL
ABSOLUTE EOSINOPHIL [4]: 38.33 CELLS/uL
ABSOLUTE LYMPHOCYTE [4]: 13151.33 CELLS/uL
ABSOLUTE SEGMENTED NEUTROPHIL [4]: 736.67 CELLS/uL
BASOPHIL [4]: 0%
EOSINOPHIL [4]: 0.33%
ERYTHROCYTE COUNT [4]: 6.2 x10E6/uL
HEMATOCRIT [4]: 39.87%
LEUKOCYTE COUNT [4]: 14.1 x10E3/uL
LYMPHOCYTE [4]: 93.33%
MEAN CORPUSCULAR HEMOGLOBIN [4]: 24.13 pg
MEAN CORPUSCULAR HEMOGLOBIN CONCENTRATION [4]: 37.57 G/DL
MEAN CORPUSCULAR VOLUME [4]: 64.33 fL
MONOCYTE [4]: 1%
NEUTROPHIL [4]: 5.33%
NUCLEATED RED BLOOD CELLS [4]: 0 /100WBC
PLATELET COUNT [4]: 1362.67 x10E3/uL
ALANINE AMINOTRANSFERASE [4]: 51.67 u/L
